The test system of one data set is Streptococcus. Put plainly: Group A Streptococcus viability loss, dose response, counter-screen for streptokinase expression inhibitor project, luminescence, BacTiterGlo (AID 1915).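 Further: potency for reduction of bacterial viability or growth.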 It is filed as functional, organism-based.
The target in another data set is T1, Streptokinase A (Streptococcus pyogenes serotype M1, UniProt P10520).
T1 sequence (P10520 whole entry): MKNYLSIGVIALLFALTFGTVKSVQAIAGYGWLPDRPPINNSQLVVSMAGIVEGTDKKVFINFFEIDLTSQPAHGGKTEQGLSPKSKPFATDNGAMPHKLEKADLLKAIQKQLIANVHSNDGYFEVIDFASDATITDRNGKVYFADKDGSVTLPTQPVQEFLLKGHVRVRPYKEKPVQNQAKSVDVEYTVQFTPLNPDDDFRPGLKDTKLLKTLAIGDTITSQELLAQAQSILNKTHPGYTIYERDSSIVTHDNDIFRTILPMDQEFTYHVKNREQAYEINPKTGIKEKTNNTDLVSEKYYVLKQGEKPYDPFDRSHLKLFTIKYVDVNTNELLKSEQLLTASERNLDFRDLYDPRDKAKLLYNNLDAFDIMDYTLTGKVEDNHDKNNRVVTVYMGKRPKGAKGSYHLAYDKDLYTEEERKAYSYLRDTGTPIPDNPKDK
In words: S. pyogenes streptokinase expression inhibitors, potency, dose response, plasminogen activation absorbance, OD405 (AID 1914).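 Further: secreted streptokinase activity via plasminogen activation per viability signal from cell pellet.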 Type of data set: functional, Streptococcus pyogenes M1 GAS.

For data set [1], the system named is Streptococcus sp. 'group A'. In words: growth inhibition of control SK(-) GAS strain, dose response, counter-screen for streptokinase expression inhibitor project, luminescence, kanamycin, BacTiterGlo, confirmation (AID 1900). Type of data set: functional, organism-based.
The target in a further data set is T2, Cytochrome P450 1A2 (Homo sapiens, UniProt P05177).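 Further: PubChem cytochrome P450 panel assay, CYP1A2 panel member.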
T2 sequence (P05177 whole entry): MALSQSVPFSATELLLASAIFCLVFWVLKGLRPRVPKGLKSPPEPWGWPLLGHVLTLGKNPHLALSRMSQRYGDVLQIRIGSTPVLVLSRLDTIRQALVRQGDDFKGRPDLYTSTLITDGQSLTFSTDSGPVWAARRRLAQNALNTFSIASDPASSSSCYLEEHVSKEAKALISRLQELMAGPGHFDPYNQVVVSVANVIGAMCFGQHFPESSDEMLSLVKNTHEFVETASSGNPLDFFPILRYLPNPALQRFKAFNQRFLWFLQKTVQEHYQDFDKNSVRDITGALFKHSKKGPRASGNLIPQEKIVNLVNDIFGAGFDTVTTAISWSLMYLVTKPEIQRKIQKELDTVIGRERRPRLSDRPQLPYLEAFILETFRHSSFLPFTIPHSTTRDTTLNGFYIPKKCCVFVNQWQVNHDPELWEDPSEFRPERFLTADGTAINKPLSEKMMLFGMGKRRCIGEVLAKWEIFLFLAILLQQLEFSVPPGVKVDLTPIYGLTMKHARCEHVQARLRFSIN

The target in another data set is Cytochrome P450 3A4 (Homo sapiens, UniProt P08684).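 Further: CYP3A4 tested as one member of a cytochrome P450 panel screen.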
Cytochrome P450 3A4, sequence (P08684 whole entry): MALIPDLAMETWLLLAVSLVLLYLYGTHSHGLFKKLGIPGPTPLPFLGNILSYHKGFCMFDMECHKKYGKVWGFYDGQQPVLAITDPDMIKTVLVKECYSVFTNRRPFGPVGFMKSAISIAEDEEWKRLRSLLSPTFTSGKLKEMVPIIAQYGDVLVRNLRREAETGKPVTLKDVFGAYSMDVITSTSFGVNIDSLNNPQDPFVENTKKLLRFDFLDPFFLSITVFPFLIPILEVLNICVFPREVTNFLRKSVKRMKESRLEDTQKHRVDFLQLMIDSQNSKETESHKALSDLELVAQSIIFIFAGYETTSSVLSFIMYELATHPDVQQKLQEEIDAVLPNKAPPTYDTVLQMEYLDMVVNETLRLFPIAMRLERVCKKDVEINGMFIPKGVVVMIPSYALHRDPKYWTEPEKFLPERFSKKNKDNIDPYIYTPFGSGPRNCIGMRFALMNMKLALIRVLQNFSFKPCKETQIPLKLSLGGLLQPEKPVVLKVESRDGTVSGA
Data set [2] concerns the target T3, Heat shock factor protein 1 (Mus musculus, UniProt P38532).
T3 sequence (P38532 whole entry): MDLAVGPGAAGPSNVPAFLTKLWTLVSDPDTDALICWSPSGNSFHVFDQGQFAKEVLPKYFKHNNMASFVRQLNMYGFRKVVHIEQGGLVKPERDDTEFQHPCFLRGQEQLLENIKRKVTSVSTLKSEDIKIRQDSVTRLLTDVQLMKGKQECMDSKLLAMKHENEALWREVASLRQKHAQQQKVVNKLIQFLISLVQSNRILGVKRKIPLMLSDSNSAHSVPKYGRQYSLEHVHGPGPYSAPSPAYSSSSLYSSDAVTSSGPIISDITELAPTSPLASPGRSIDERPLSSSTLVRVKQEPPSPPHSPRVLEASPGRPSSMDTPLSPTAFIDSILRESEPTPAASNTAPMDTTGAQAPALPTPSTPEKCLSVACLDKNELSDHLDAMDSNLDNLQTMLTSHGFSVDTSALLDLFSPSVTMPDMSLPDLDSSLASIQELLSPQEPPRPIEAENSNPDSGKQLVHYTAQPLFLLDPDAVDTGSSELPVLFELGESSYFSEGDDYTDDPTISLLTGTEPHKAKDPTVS
In words: HSF1 potentiators in luciferase reporter cells, confirmation, cell-based, NIH3T3, luminescence, dose retest (AID 435004).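 Further: stress induced by proteasome inhibitor MG132 added 30 min after compound; luciferase reporter driven by HSF1 response element in NIH3T3 cells; actives raise luminescence as potentiators of the MG132 stress response.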 Type of data set: functional. (In general: A reporter such as luciferase makes a cellular process visible.)

Data set [3] is described as follows: cytotoxicity toward NIH3T3 fibroblasts, dose response, counter-screen, cell-based, ATP luminescence, mouse fibroblasts (AID 2010).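 Further: cells exposed to compound for about 90 hours before reading.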 It is filed as functional. In general terms: The purpose of a counterscreen is to sort out artefacts and off-target activity.
Data set [4] is described as follows: inhibitors of intracellular T. cruzi replication, confirmation, NIH3T3 host cells, beta-gal luminescence (AID 2044).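 Further: intracellular parasites grown in NIH/3T3 mouse fibroblasts as host cells; luminescent beta-galactosidase reporter signal from transgenic T. cruzi replicating inside host cells; inhibitors lower the luminescence signal.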 Type of data set: functional, cell-based.
Another data set concerns the target Cytochrome P450 2C19 (Homo sapiens, UniProt P33261). In words: Cytochrome panel assay with activity outcomes. Panel member name: p450-cyp2c19 Compounds with AC50 equal or less than 10 uM are considered active. Type of data set: functional.

Active and inactive are the calls of the source. Bounds are passed on as bounds.

Cytochrome P450 2C19, sequence (P33261 whole entry): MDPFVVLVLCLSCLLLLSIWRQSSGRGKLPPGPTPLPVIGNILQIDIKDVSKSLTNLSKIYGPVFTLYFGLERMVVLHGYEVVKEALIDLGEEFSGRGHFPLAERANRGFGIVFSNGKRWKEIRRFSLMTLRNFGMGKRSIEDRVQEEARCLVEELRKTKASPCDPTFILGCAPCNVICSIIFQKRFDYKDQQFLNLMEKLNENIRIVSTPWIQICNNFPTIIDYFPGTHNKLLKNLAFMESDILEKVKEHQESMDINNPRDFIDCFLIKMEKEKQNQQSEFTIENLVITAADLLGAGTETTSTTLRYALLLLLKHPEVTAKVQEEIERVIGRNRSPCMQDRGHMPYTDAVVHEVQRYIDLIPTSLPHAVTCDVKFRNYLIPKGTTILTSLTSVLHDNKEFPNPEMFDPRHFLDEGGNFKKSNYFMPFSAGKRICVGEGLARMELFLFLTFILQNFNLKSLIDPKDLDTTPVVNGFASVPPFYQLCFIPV

The term EC50 denotes the midpoint of the concentration-response curve. As for `O=S(=O)(c1ccc(F)cc1)c1nc(-c2ccccc2)oc1N1CCOCC1`, the EC50 (in the data set on Streptococcus; on Streptokinase A; in [1]) was > 150 µM (not active) in each case.

For orientation: AC50 means the midpoint of the concentration-response curve, whichever way the signal moves. Consider `COc1ccc2c(c1)N(C[C@@H](C)CN(C)C)c1ccccc1S2` [DEXTROMEPROMAZINE], for which the half-maximal activity concentration (AC50) was 15.8 µM (inconclusive) at Cytochrome P450 1A2 and 7.94 µM (inconclusive) at Cytochrome P450 3A4.

For `COc1cccc(Nc2c3c(nc4c(-c5ccccc5)c(C)nn24)CCC3)c1`, the EC50 was > 150 µM (not active) with Streptococcus, 8.91 µM (active) on Streptokinase A and 15 µM (active) in data set [1].

On to `CCCSc1nc(C)cc(C)c1C(N)=O`, for which the half-maximal activity concentration (AC50) on Cytochrome P450 1A2 is 28.2 µM (inconclusive).

Turning to `CCOC(=O)C(CCOc1cccc(CC)c1)C(=O)OCC`, the EC50 in data set [2] is 59.6 µM (active).

`COC(=O)Cc1ccc(NC(=O)c2ccc(C)c(C)c2)cc1`: in data set [2], the EC50 is 69.4 µM (active).

As for `CCOc1ccc(NC(=O)Cn2nnc(C(=O)NCc3ccco3)c2N)cc1`, the EC50 in data set [2] was > 260 µM (inactive).

`COc1ccc(-c2c(C)nn3c(Cl)c(C)c(C)nc23)cc1`: in data set [2], the concentration for a half-maximal effect (EC50) is 108 µM (active).

As for `CCOc1ccc2nc(N(CCN(CC)CC)C(=O)c3ccc([N+](=O)[O-])cc3)sc2c1`, the figures for the EC50 in data set [3] and in data set [4] were > 60 µM (not active) and 0.184 µM (active), respectively.

Turning to `CC(C)(C)c1cc2cccnc2n1Cc1cccc(F)c1`, the AC50 at Cytochrome P450 2C19 (read-out: AC50) was 11.2 µM (inconclusive); on Cytochrome P450 1A2 it was 12.6 µM (inconclusive); at Cytochrome P450 3A4, 15.8 µM (inconclusive).

As to `O=S(=O)(NCC(c1cccnc1)N1CCN(c2ccccc2)CC1)c1cc(F)ccc1F` (centres undefined), the EC50 was > 60 µM (not active) in data set [3] and 0.508 µM (active) in data set [4].

As for `CC1(C)CC(c2nc(-c3ccc(Cl)cc3)cs2)CCS1` (centres undefined), the values for the EC50 (in the data set with Streptococcus; at Streptokinase A; in data set [1]) were > 150 µM (not active), 13.9 µM (active) and 9.13 µM (active), respectively.

Turning to `COc1ccccc1NC(=O)C1=C(C)Nc2nc(-c3ccc(N(C)C)cc3)nn2C1c1ccncc1` (centres undefined), the AC50 at Cytochrome P450 1A2 is 12.6 µM (inconclusive).

For `CCOC(=O)c1nnn(-c2nonc2-n2cccc2)c1CN1CCC(C)CC1`, the 50% effective concentration (EC50) in the data set on Streptococcus was > 150 µM (not active); on Streptokinase A, 14.9 µM (active); in data set [1], 9.92 µM (active).

For `Cc1cccc(C(=O)OC(C)CN2CCN(C)CC2)c1` (centres undefined), the EC50 is > 30 µM (not active) in data set [3] and 0.994 µM (active) in [4].

On to `CC1(C)Cc2c(C#N)c(N3CCCC3)nc(-c3ccco3)c2CO1`, for which the EC50 in data set [2] is > 260 µM (inactive).

`CC1=C(C(=O)N2CCOCC2)C(c2c(C)cc(C)cc2C)NC(S)=N1` (centres undefined): the EC50 in data set [2] is > 260 µM (inactive).

As to `O=C(Nc1nnc(C2CC2)s1)c1cc(S(=O)(=O)N2CCN(c3ccccc3)CC2)ccc1Cl`, the AC50 on Cytochrome P450 1A2 was 11.2 µM (inconclusive).

With `Cc1ccc(C(CC(=O)c2ccco2)SCCO)cc1` (centres undefined), the AC50 at Cytochrome P450 1A2 was 25.1 µM (inconclusive).

On to `Cn1ccc(C(=O)N/N=C/c2ccncc2)n1`, for which the EC50 in [2] is > 260 µM (inactive).

On to `O=C(Nc1cc(S(=O)(=O)N2CCOCC2)ccc1-n1cncn1)c1ccc(Cl)cc1`, for which the values for the EC50 in data set [3] and in data set [4] were > 60 µM (not active) and 2.54 µM (active), respectively.

Turning to `Cc1nn2c(O)c3c(nc2c1-c1ccc(F)cc1)CCCC3`, the values for the EC50 in data set [3] and in [4] were 10.1 µM (active) and 0.451 µM (active), respectively.

In the case of `CCCCN(C(=O)/C=C/c1ccco1)c1c(N)n(CCC)c(=O)[nH]c1=O`, the EC50 in data set [2] is > 260 µM (inactive).

Regarding `CCOc1ccc(NC(=O)CSc2nnc(Cc3ccccc3)c(=O)n2N)cc1`, the EC50 (in the data set on Streptococcus; on Streptokinase A; in data set [1]) was > 150 µM (not active) throughout.

Regarding `O=S(=O)(O)c1ccc(O)c2ncccc12`, at Cytochrome P450 1A2, the AC50 is 0.631 µM (inconclusive).

Regarding `Cn1c(=O)c2nc(CCCCC(=O)O)[nH]c2n(C)c1=O`, the AC50 result was “inconclusive” at Cytochrome P450 2C19 and 0.794 µM (inconclusive) on Cytochrome P450 1A2.

Regarding `Cn1cc(CNC(=O)c2sc3cccc(Cl)c3c2Cl)cn1`, the EC50 in data set [2] was > 260 µM (inactive).

Take `CC1(C)Cc2c(C#N)c(N)n(-c3ccccc3)c(=S)c2CO1`: in [2], the EC50 was > 260 µM (inactive).

`CCOC(=O)Cn1c(S(=O)(=O)Cc2ccc(F)cc2)nc(-c2ccccc2)c1-c1ccccc1`: in [2], the EC50 is > 260 µM (inactive).

Consider `CCn1c(C(=O)NCc2cccnc2)cc2sc(Cl)cc21`, for which the EC50 in data set [3] is > 60 µM (not active); in [4] it was 1.12 µM (active).

For the molecule `O=C(c1cccc(F)c1)N1CCC2(CCCN(c3cccc(-c4ccccc4)c3)C2)CC1`, the concentration at half-maximal activity (AC50) at Cytochrome P450 1A2 was 15.8 µM (inconclusive).

For `COC(=O)C1(O)CC(CC(C)C)=NN1C(=O)c1ccccc1` (centres undefined), in [2], the EC50 is > 260 µM (inactive).

Turning to `CCCCOc1ccc(CSc2nc[nH]n2)cc1`, in data set [2], the EC50 is 106 µM (active).

As to `COc1ccc(-n2nc([N+](=O)[O-])c(NCCc3ccc(Cl)cc3)[n+]2[O-])cc1`, the figures for the EC50 in [3] and in [4] were > 60 µM (not active) and 0.602 µM (active), respectively.

With `COc1ccccc1CN1CCN(Cc2ccc(Cl)cc2)CC1`, the EC50 in data set [3] was > 60 µM (not active); in data set [4], 0.439 µM (active).

Take `O=C1[C@H]2[C@@H](c3ccc(Cl)cc3)N3C(=O)N(c4cccc(Br)c4)C(=O)[C@@]3(Cc3ccc(Cl)cc3)[C@H]2C(=O)N1C1CCCCC1`: the values for the EC50 in data set [3] and in data set [4] were > 60 µM (not active) and 1.24 µM (active), respectively.

Take `N[C@H](Cc1ccc(Cl)cc1)C(=O)O`: at Cytochrome P450 1A2, the half-maximal activity concentration (AC50) was 2 µM (inconclusive).

As to `O=C(Nc1ccc2c(c1)C(=O)OC2)c1ccc(Cl)cc1`, in data set [2], the EC50 was > 260 µM (inactive).

Consider `COc1ccc([N+](=O)[O-])cc1NC(=S)NC(NC(=O)C(c1ccccc1)c1ccccc1)C(Cl)(Cl)Cl` (centres undefined), for which the EC50 on Streptokinase A is > 150 µM (not active).

Take `CC1=CC(=O)C2=C(C)C[C@@H](O)[C@@H]3[C@@H](OC(=O)[C@H]3C)[C@H]12`: the AC50 at Cytochrome P450 1A2 was 25.1 µM (inconclusive).

For the molecule `Cc1cccc(C)c1N1CCN(S(=O)(=O)c2ccc(F)cc2)CC1`, the EC50 in [2] was > 260 µM (inactive).

Values taken from ChEMBL document CHEMBL1201862, “PubChem BioAssay data set” (2004).
